Measured values from PubChem BioAssay AID1963867 (Molecular Pharmacology Branch, DTP, NCI, 2024).
“And” between values parts separate entries of the source, which are not always exact repeats. Identical values can stand only once. The source made the active and inactive calls. Rule for the calls: active = viability on the fitted dose curve at most 10% of control; inactive = the rest.

Test system: KRAS-mutant PDC tumor spheroid with HUVEC/MSC, viability
Test: Anticancer human tumor 327498-153-R-J2-PDC patient-derived uterine carcinosarcoma cell line growth inhibition [KRAS2]
Conditions: for viability, T/C: stronger effect = lower value
How it was run: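 KRAS-mutant tumor cells were grown as spheroids with HUVEC endothelial cells and human MSCs as stroma. Targeted agents were tested alone and with KRAS pathway inhibitors. Doses started at or near clinical Cmax, or 10 microM, descending half-log.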

[1] = curve of first compound, second compound 0.1 µM
[2] = curve of first compound, second compound 0.316 µM
[3] = curve of first compound, second compound 1 µM
[4] = curve of first compound, second compound 3.16 µM
[5] = second compound 0.1 µM, first compound 0.0316 µM
[6] = second compound 0.1 µM, first compound 0.1 µM
[7] = second compound 0.1 µM, first compound 0.316 µM
[8] = second compound 0.1 µM, first compound 1 µM
[9] = second compound 0.1 µM, first compound 3.16 µM
[10] = second compound 0.1 µM, first compound 10 µM
[11] = second compound 0.316 µM, first compound 0.0316 µM
[12] = second compound 0.316 µM, first compound 0.1 µM
[13] = second compound 0.316 µM, first compound 0.316 µM
[14] = second compound 0.316 µM, first compound 1 µM
[15] = second compound 0.316 µM, first compound 3.16 µM
[16] = second compound 0.316 µM, first compound 10 µM
[17] = second compound 1 µM, first compound 0.0316 µM
[18] = second compound 1 µM, first compound 0.1 µM
[19] = second compound 1 µM, first compound 0.316 µM
[20] = second compound 1 µM, first compound 1 µM
[21] = second compound 1 µM, first compound 3.16 µM
[22] = second compound 1 µM, first compound 10 µM
[23] = second compound 3.16 µM, first compound 0.0316 µM
[24] = second compound 3.16 µM, first compound 0.1 µM
[25] = second compound 3.16 µM, first compound 0.316 µM
[26] = second compound 3.16 µM, first compound 1 µM
[27] = second compound 3.16 µM, first compound 3.16 µM
[28] = second compound 3.16 µM, first compound 10 µM
[29] = curve of first compound, second compound 10 µM
[30] = second compound 10 µM, first compound 0.0316 µM
[31] = second compound 10 µM, first compound 0.1 µM
[32] = second compound 10 µM, first compound 0.316 µM
[33] = second compound 10 µM, first compound 1 µM
[34] = second compound 10 µM, first compound 3.16 µM
[35] = second compound 10 µM, first compound 10 µM
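Throughout, for IC50: spheroids exposed to agents for seven days before reading.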
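Throughout, for viability, T/C: spheroids exposed to agents for seven days before reading; 100% = DMSO vehicle wells so lower means fewer viable cells.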

In the case of `Cn1nccc1Nc1nccc(-c2cc3c(s2)C(C)(C)N(CCN2CCOCC2)C3=O)n1` + C=CC(=O)N1CCN(c2nc(OCC3CCCN3C)nc3c2CCN(c2cccc4cccc(C)c24)C3)CC1CC#N, the IC50 (curve of first compound, second compound 0.0316 µM) is reported as 422 nM, the IC50 [1] is reported as 227 nM and the IC50 [2] is reported as < 31.6 nM. For the same compound, the IC50 [3] was < 31.6 nM, the IC50 [4] was < 31.6 nM and the viability, T/C (second compound 0.0316 µM, first compound 0.0316 µM) was 62.5%. It also gave a viability, T/C (second compound 0.0316 µM, first compound 0.1 µM) of 54.6%, a viability, T/C (second compound 0.0316 µM, first compound 0.316 µM) of 55.6% and a viability, T/C (second compound 0.0316 µM, first compound 1 µM) of 25.2%. It also gave a viability, T/C (second compound 0.0316 µM, first compound 3.16 µM) of 40.4%, a viability, T/C (second compound 0.0316 µM, first compound 10 µM) of 34.7% and a viability, T/C [5] of 60.2%. The viability, T/C [6] was 62.1%, the viability, T/C [7] was 45.5% and the viability, T/C [8] was 33%. The viability, T/C [9] was 36.2%, the viability, T/C [10] was 28.8% and the viability, T/C [11] was 42.9%. For the same compound, the viability, T/C [12] was 45%, the viability, T/C [13] was 37.6% and the viability, T/C [14] was 33.6%. It also gave a viability, T/C [15] of 31.1%, a viability, T/C [16] of 27.6% and a viability, T/C [17] of 39.6%. For the same compound, the viability, T/C [18] was 31.1%, the viability, T/C [19] was 29.7% and the viability, T/C [20] was 33.3%. The viability, T/C [21] was 30.3%, the viability, T/C [22] was 21.3% and the viability, T/C [23] was 0.15%. It also gave a viability, T/C [24] of 0.17%, a viability, T/C [25] of 0.15% and a viability, T/C [26] of 0.16%. For the same compound, the viability, T/C [27] was 0.54% and the viability, T/C [28] was 0.21%.

Compound `CC1(C)CCC(CN2CCN(c3ccc(C(=O)NS(=O)(=O)c4ccc(NCC5CCOCC5)c([N+](=O)[O-])c4)c(Oc4cnc5[nH]ccc5c4)c3)CC2)=C(c2ccc(Cl)cc2)C1` + C=CC(=O)N1CCN(c2nc(=O)n(-c3c(C)ccnc3C(C)C)c3nc(-c4c(O)cccc4F)c(F)cc23)C(C)C1 has an IC50 [1] of 1300 nM, an IC50 [2] of 1740 nM and an IC50 [3] of 1580 nM. For the same compound, the IC50 [4] was 1210 nM, the IC50 [29] was < 31.6 nM and the viability, T/C [5] was 65.7%. The viability, T/C [6] was 61.1%, the viability, T/C [7] was 54% and the viability, T/C [8] was 57.4%. For the same compound, the viability, T/C [9] was 36.5%, the viability, T/C [10] was 1.21% and the viability, T/C [11] was 57%. It also gave a viability, T/C [12] of 54.5%, a viability, T/C [13] of 58.1% and a viability, T/C [14] of 57.5%. It also gave a viability, T/C [15] of 42.7%, a viability, T/C [16] of 6.41% and a viability, T/C [17] of 60.7%. For the same compound, the viability, T/C [18] was 55.2%, the viability, T/C [19] was 57.4% and the viability, T/C [20] was 52.2%. It also gave a viability, T/C [21] of 44.3%, a viability, T/C [22] of 1.34% and a viability, T/C [23] of 52.6%. It also gave a viability, T/C [24] of 53.5%, a viability, T/C [25] of 53.2% and a viability, T/C [26] of 52.6%. The viability, T/C [27] was 37.4%, the viability, T/C [28] was 0.58% and the viability, T/C [30] was 43.2%. It also gave a viability, T/C [31] of 41.6%, a viability, T/C [32] of 37.8% and a viability, T/C [33] of 46.5%. For the same compound, the viability, T/C [34] was 10.5% and the viability, T/C [35] was 2.01%.

`COc1cc2nccc(Oc3ccc(NC(=O)C4(C(=O)Nc5ccc(F)cc5)CC4)cc3)c2cc1OC` + CNCc1ccccc1-c1csc(C(C)Nc2nc(C)nc3cc(OC)c(OC)cc23)c1 was tested, and the IC50 [1] was 2040 nM, the IC50 [2] was 1910 nM and the IC50 [3] was 1670 nM. The IC50 [4] was < 31.6 nM, the IC50 [29] was < 31.6 nM and the viability, T/C [5] was 79.7%. For the same compound, the viability, T/C [6] was 80.7%, the viability, T/C [7] was 88.2% and the viability, T/C [8] was 85.9%. For the same compound, the viability, T/C [9] was 29.3%, the viability, T/C [10] was 0.95% and the viability, T/C [11] was 83%. For the same compound, the viability, T/C [12] was 72.5%, the viability, T/C [13] was 77.7% and the viability, T/C [14] was 73.3%. It also gave a viability, T/C [15] of 31.8%, a viability, T/C [16] of 0.58% and a viability, T/C [17] of 72.8%. The viability, T/C [18] was 73.5%, the viability, T/C [19] was 69.7% and the viability, T/C [20] was 69.5%. It also gave a viability, T/C [21] of 25.8%, a viability, T/C [22] of 0.3% and a viability, T/C [23] of 0.12%. It also gave a viability, T/C [24] of 0.17%, a viability, T/C [25] of 1.01% and a viability, T/C [26] of 0.1%. The viability, T/C [27] was 0.06%, the viability, T/C [28] was 0.15% and the viability, T/C [30] was 0.12%. It also gave a viability, T/C [31] of 0.11%, a viability, T/C [32] of 0.34% and a viability, T/C [33] of 0.34%. The viability, T/C [34] was 0.71% and the viability, T/C [35] was 0.81%.

With `COc1cc2nc(C)nc(NC(C)c3cc(N)cc(C(F)(F)F)c3)c2cc1OC1CCOC1` (stereo not given) the outcome (compound 0.316 µM) was “inactive”, the viability, T/C (compound 3.16 µM) was 65.2% [middle of 17 runs] and the IC50 (compound alone, run of 07/12/2021) was > 10000 nM and 9500 nM. The IC50 (compound alone, run of 07/19/2021) was > 10000 nM and 8250 nM and 8160 nM and the IC50 (compound alone, run of 07/26/2021) was > 10000 nM.

For `CC(C)NCC(C(=O)N1CCN(c2ncnc3c2C(C)CC3O)CC1)c1ccc(Cl)cc1` (stereo not given) + CNCc1ccccc1-c1csc(C(C)Nc2nc(C)nc3cc(OC)c(OC)cc23)c1, the IC50 [1] was 216 nM, the IC50 [2] was 147 nM and the IC50 [3] was 115 nM. The IC50 [4] was < 31.6 nM, the IC50 [29] was < 31.6 nM and the viability, T/C [5] was 77.9%. The viability, T/C [6] was 55.6%, the viability, T/C [7] was 45% and the viability, T/C [8] was 34.7%. For the same compound, the viability, T/C [9] was 26.4%, the viability, T/C [10] was 15% and the viability, T/C [11] was 63.6%. The viability, T/C [12] was 55.1%, the viability, T/C [13] was 40.9% and the viability, T/C [14] was 27.5%. For the same compound, the viability, T/C [15] was 22.1%, the viability, T/C [16] was 14.6% and the viability, T/C [17] was 66.3%. The viability, T/C [18] was 52.5%, the viability, T/C [19] was 36.1% and the viability, T/C [20] was 24.6%. It also gave a viability, T/C [21] of 18.2%, a viability, T/C [22] of 11.5% and a viability, T/C [23] of 0.12%. The viability, T/C [24] was 0.09%, the viability, T/C [25] was 0.09% and the viability, T/C [26] was 0.07%. It also gave a viability, T/C [27] of 0.3%, a viability, T/C [28] of 0.16% and a viability, T/C [30] of 0.23%. It also gave a viability, T/C [31] of 0.44%, a viability, T/C [32] of 0.16% and a viability, T/C [33] of 0.16%. For the same compound, the viability, T/C [34] was 0.16% and the viability, T/C [35] was 0.23%.

With `Cn1ncnc1[C@H]1c2n[nH]c(=O)c3cc(F)cc(c23)N[C@@H]1c1ccc(F)cc1` + CNCc1ccccc1-c1csc(C(C)Nc2nc(C)nc3cc(OC)c(OC)cc23)c1 the IC50 [1] was 18.4 nM, the IC50 [2] was 10.7 nM and the IC50 [3] was 5.81 nM. For the same compound, the IC50 [4] was < 0.316 nM, the IC50 [29] was < 0.316 nM and the viability, T/C (second compound 0.1 µM, first compound 0.000316 µM) was 84%. For the same compound, the viability, T/C (second compound 0.1 µM, first compound 0.001 µM) was 81.7%, the viability, T/C (second compound 0.1 µM, first compound 0.00316 µM) was 81.6% and the viability, T/C (second compound 0.1 µM, first compound 0.01 µM) was 62.9%. The viability, T/C [5] was 38%, the viability, T/C [6] was 19.7% and the viability, T/C (second compound 0.316 µM, first compound 0.000316 µM) was 72.8%. The viability, T/C (second compound 0.316 µM, first compound 0.001 µM) was 70.2%, the viability, T/C (second compound 0.316 µM, first compound 0.00316 µM) was 61.7% and the viability, T/C (second compound 0.316 µM, first compound 0.01 µM) was 54.4%. For the same compound, the viability, T/C [11] was 28.2%, the viability, T/C [12] was 19.9% and the viability, T/C (second compound 1 µM, first compound 0.000316 µM) was 63.2%. It also gave a viability, T/C (second compound 1 µM, first compound 0.001 µM) of 68.8%, a viability, T/C (second compound 1 µM, first compound 0.00316 µM) of 53.7% and a viability, T/C (second compound 1 µM, first compound 0.01 µM) of 44.5%. It also gave a viability, T/C [17] of 30.9%, a viability, T/C [18] of 21.7% and a viability, T/C (second compound 3.16 µM, first compound 0.000316 µM) of 0.09%. The viability, T/C (second compound 3.16 µM, first compound 0.001 µM) was 0.09%, the viability, T/C (second compound 3.16 µM, first compound 0.00316 µM) was 0.1% and the viability, T/C (second compound 3.16 µM, first compound 0.01 µM) was 0.07%. For the same compound, the viability, T/C [23] was 0.06%, the viability, T/C [24] was 0.15% and the viability, T/C (second compound 10 µM, first compound 0.000316 µM) was 0.12%. For the same compound, the viability, T/C (second compound 10 µM, first compound 0.001 µM) was 0.11%, the viability, T/C (second compound 10 µM, first compound 0.00316 µM) was 0.12% and the viability, T/C (second compound 10 µM, first compound 0.01 µM) was 0.12%. For the same compound, the viability, T/C [30] was 0.16% and the viability, T/C [31] was 0.34%.
